# In US20260053837A1, “NICOTINAMIDE-RIBOSIDE AND PTEROSTILBENE COMBINATIONS TO TREAT OSTEOARTHRITIS” (The Regents of the University of California, priority 2022, published 2026):
# What was measured:
# [1] = cited from earlier work
# injury-induced OA model = assay: pain behavior in injury-induced OA model (DMM surgery; Von Frey test, static weight bearing); type: in vivo, mice; settings: NR 400 mg/kg/day, PT 80 mg/kg/day
# Experimental: In vivo studies were designed to determine if oral supplementation of NR+PT (5:1) with NR at 400 mg/kg/day (the commonly used dose in animal studies) and PT at 80 mg/kg/day is better than NR alone (400 mg/kg/day) or PT alone (80 mg/kg/day), in limiting cartilage degradation and reducing pain in an injury-induced OA model. […] Because synergistic or additive effect of NR+PT combination was not initially observed, in vitro studies tested the combination of NR and PT at different ratio (NR:PT, 1:1, 2:1, 4:1, 6:1) and different concentrations (based on PT concentration at 25, 50 and 100 uM) on chondrocyte response to IL-1beta. Because IL-1b is known to induce nitric oxide (NO) production in chondrocytes, NO release (measured from the conditioned media) was used as a readout. It was determined that NR+PT at 2:1 ratio had the best efficacy in inhibition of IL-1b induced NO release, particularly for NR at 0.1 mM and PT at 0.05 mM. […] See, FIGS. 1 and 2. C57BL/6J mice at 12 weeks of age were subjected to joint injury via destabilization of medial meniscus (DMM) surgery through transection of meniscotibial ligament. Sham surgery (just skin incision) was performed on separate group of mice. […] Pain-like behaviors was evaluated at baseline (1 weeks before the surgery) and 2, 4, 6, 8 and 10 weeks after DMM surgery. • 1. […]
compound,measurement,setting,value
"NC(=O)c1ccc[n+]([C@@H]2O[C@H](CO)[C@@H](O)[C@H]2O)c1 [NR, nicotinamide riboside]",reduction of conversion of NR to NAM,[1]; germ-free mice after oral intake,3 fold
same,stability of NR in gut and circulation,"[1]; mouse, in vivo",rapidly degraded to NAM
same,"efficacy on pain, comparison among treatment groups","injury-induced OA model; NR+PT 5:1, gavage daily",slightly better efficacy
same,pain compared to the non-treated controls,"injury-induced OA model; NR+PT 5:1, gavage daily after DMM surgery",significantly less pain
